Where “and” joins values, the source holds several entries; their conditions need not be identical. Equal entries are not always repeated. Where a SMILES comes first, the peptide text is derived from it. The star is where a group is joined. βNA = c1ccc2cc(N*)ccc2c1
Tested on: C. elegans
Conditions: Table S2, C. elegans SS assay, 110 μM, averages of 4 data points

COc1c(O[C@@H]2O[C@H](C(=O)O)[C@@H](O)[C@H](O)[C@H]2O)cc2oc(-c3ccccc3)cc(=O)c2c1O [Oroxylin A‐7‐O‐glucuronide]
Percentage of motility inhibition 0 h: 0%
Percentage of motility inhibition 24 h: 1%

CCOC(=O)C1=C[C@@H](OC(CC)CC)[C@H](NC(C)=O)[C@@H](N)C1.O=P(O)(O)O [Oseltamivir ( phosphate)]
Percentage of motility inhibition 0 h: 0%
Percentage of motility inhibition 24 h: 0%

CCC(CC)O[C@@H]1C=C(C(=O)O)C[C@H](N)[C@H]1NC(C)=O [Oseltamivir (acid)]
Percentage of motility inhibition 0 h: 18%
Percentage of motility inhibition 24 h: 8%

C[C@@H]1O[C@@H](O[C@H]2C[C@@H](O)[C@]3(CO)[C@H]4[C@H](O)C[C@]5(C)[C@@H](C6=CC(=O)OC6)CC[C@]5(O)[C@@H]4CC[C@]3(O)C2)[C@H](O)[C@H](O)[C@H]1O.O.O.O.O.O.O.O.O [Ouabain (Octahydrate)]
Percentage of motility inhibition 0 h: 0%
Percentage of motility inhibition 24 h: 2%

Cc1onc(-c2ccccc2)c1C(=O)N[C@@H]1C(=O)N2[C@@H]1SC(C)(C)[C@@H]2C(=O)[O-].O.[Na+] [Oxacillin (sodium monohydrate)]
Percentage of motility inhibition 0 h: 27%
Percentage of motility inhibition 24 h: 9%

CN1CCCN=C1/C=C/c1cccc(O)c1.O=C(O)c1cc2ccccc2c(Cc2c(O)c(C(=O)O)cc3ccccc23)c1O [Oxantel (pamoate)]
Percentage of motility inhibition 0 h: 54%
Percentage of motility inhibition 24 h: 33%

O=C1CCCC2C3CCC[N+]4([O-])CCCC(CN12)C34 (stereo not drawn) [Oxysophoridine]
Percentage of motility inhibition 0 h: 18%
Percentage of motility inhibition 24 h: 9%

CN1CC[C@@]23C=C[C@H](O)C[C@@H]2Oc2c(O)ccc(c23)C1 [O‐Desmethyl Galantha mine]
Percentage of motility inhibition 0 h: 4%
Percentage of motility inhibition 24 h: 5%

Cl.Cl.NC(N)=NCCC[C@H](NC(=O)[C@@H](N)Cc1ccccc1)C(=O)Nc1ccc2ccccc2c1 [PAβN (dihydrochloride)] (H-Phe-Arg-βNA)
Percentage of motility inhibition 0 h: 9%
Percentage of motility inhibition 24 h: 6%

C[C@@]1(F)[C@H](O)[C@@H](CO)O[C@H]1n1ccc(=O)[nH]c1=O [PSI‐6206]
Percentage of motility inhibition 0 h: 19%
Percentage of motility inhibition 24 h: 5%

CC(=O)O[C@H]1C(=O)[C@@]2(C)[C@H]([C@H](OC(=O)c3ccccc3)[C@]3(O)C[C@H](OC(=O)[C@H](O)[C@@H](NC(=O)c4ccccc4)c4ccccc4)C(C)=C1C3(C)C)[C@]1(OC(C)=O)CO[C@@H]1C[C@@H]2O [Paclitaxel]
Percentage of motility inhibition 0 h: 18% and 29%
Percentage of motility inhibition 24 h: 12% and 23%

CSC(=O)OCC1=C[C@@H]2OC(=O)C3=CO[C@@H](O[C@@H]4O[C@H](CO)[C@@H](O)[C@H](O)[C@H]4O)[C@H]1[C@@H]32 [Paederoside]
Percentage of motility inhibition 0 h: 9%
Percentage of motility inhibition 24 h: 4%

CSC(=O)OCC1=C[C@H](O)[C@H]2C(C(=O)O)=CO[C@@H](O[C@@H]3O[C@@H](CO)[C@@H](O)[C@@H](O)[C@H]3O)[C@H]12 [Paederosidic acid]
Percentage of motility inhibition 0 h: 0%
Percentage of motility inhibition 24 h: 0%

COc1cc2c(cc1OC)-c1cc3ccc(OC)c(OC)c3c[n+]1CC2.[Cl-] [Palmatine (chloride)]
Percentage of motility inhibition 24 h: 0%

COc1cc2c(cc1OC)-c1cc3ccc(OC)c(OC)c3c[n+]1CC2.[OH-] [Palmatine (hydroxide)]
Percentage of motility inhibition 0 h: 1%
Percentage of motility inhibition 24 h: 0%

COc1cc2c(cc1OC)-c1cc3ccc(OC)c(O)c3c[n+]1CC2.[OH-] [Palmaturbine (hydroxide)]
Percentage of motility inhibition 0 h: 0%
Percentage of motility inhibition 24 h: 8%

O=c1c(O[C@@H]2O[C@H](CO)[C@H](O)[C@H](O)[C@H]2O[C@@H]2O[C@H](CO)[C@@H](O)[C@H](O)[C@H]2O)c(-c2ccc(O)cc2)oc2cc(O)cc(O)c12 [Panasenoside]
Percentage of motility inhibition 0 h: 6%
Percentage of motility inhibition 24 h: 31%

O=C(CC(O)(CC(=O)OCc1ccc(OC2OC(CO)C(O)C(O)C2O)cc1)C(=O)OCc1ccc(OC2OC(CO)C(O)C(O)C2O)cc1)OCc1ccc(OC2OC(CO)C(O)C(O)C2O)cc1 (stereo not drawn) [Parishin]
Percentage of motility inhibition 0 h: 0%
Percentage of motility inhibition 24 h: 12%

NC[C@@H]1O[C@H](O[C@H]2[C@@H](O)[C@H](O[C@@H]3[C@@H](O)[C@H](N)C[C@H](N)[C@H]3O[C@H]3O[C@H](CO)[C@@H](O)[C@H](O)[C@H]3N)O[C@@H]2CO)[C@H](N)[C@@H](O)[C@@H]1O.O=S(=O)(O)O [Paromomycin (sulfate)]
Percentage of motility inhibition 0 h: 14%
Percentage of motility inhibition 24 h: 2%

C[C@H]1CC[C@@]2(O)C(C)(C)[C@@H]3CC[C@@]2(C)[C@H]1C3 [Patchouli alcohol]
Percentage of motility inhibition 0 h: 24%
Percentage of motility inhibition 24 h: 35%

CS(=O)(=O)O.C[C@H]1COc2c(C3(N)CC3)c(F)cc3c(=O)c(C(=O)O)cn1c23 [Pazufloxacin (mesylate)]
Percentage of motility inhibition 0 h: 28%
Percentage of motility inhibition 24 h: 2%

CCn1cc(C(=O)O)c(=O)c2cc(F)c(N3CCN(C)CC3)cc21.CS(=O)(=O)O [Pefloxacin (mesylate)]
Percentage of motility inhibition 0 h: 9%
Percentage of motility inhibition 24 h: 8%

C[C@H]1CC[C@@H]2N(C1)C[C@H]1[C@@H]3C[C@H]4[C@@H](C[C@H](O)[C@H]5C[C@@H](O)CC[C@@]54C)[C@@H]3CC[C@@H]1[C@]2(C)O [Peimine]
Percentage of motility inhibition 0 h: 7%
Percentage of motility inhibition 24 h: 0%

C[C@H]1CCC2N(C1)C[C@H]1C3CC4[C@@H](CC(=O)C5C[C@@H](O)CC[C@@]54C)C3CCC1[C@]2(C)O (stereo partly drawn) [Peiminine]
Percentage of motility inhibition 0 h: 0%
Percentage of motility inhibition 24 h: 19%

CC1=C2C[C@H]3[C@@H](CC(=O)[C@H]4C[C@@H](O)CC[C@@]43C)[C@@H]2CC[C@]12O[C@@H]1C[C@H](C)CN[C@H]1[C@H]2C [Peimisine]
Percentage of motility inhibition 0 h: 0%
Percentage of motility inhibition 24 h: 0%

CC1(C)S[C@@H]2[C@H](NC(=O)Cc3ccccc3)C(=O)N2[C@H]1C(=O)[O-].[K+] [Penicillin G (potassium)]
Percentage of motility inhibition 0 h: 14%
Percentage of motility inhibition 24 h: 8%

CC1(C)S[C@@H]2[C@H](NC(=O)COc3ccccc3)C(=O)N2[C@H]1C(=O)[O-].[K+] [Penicillin V (Potassium)]
Percentage of motility inhibition 0 h: 23%
Percentage of motility inhibition 24 h: 24%

N=C(N)c1ccc(OCCCCCOc2ccc(C(=N)N)cc2)cc1.O=S(=O)(O)CCO.O=S(=O)(O)CCO [Pentamidine (isethionate)]
Percentage of motility inhibition 0 h: 0%
Percentage of motility inhibition 24 h: 0%

CCC(CC)[C@H](NC(C)=O)[C@@H]1[C@H](O)[C@@H](C(=O)O)C[C@H]1NC(=N)N.O.O.O [Peramivir (trihydrate)]
Percentage of motility inhibition 0 h: 2%
Percentage of motility inhibition 24 h: 0%

C=C(C)[C@@H]1CC=C(CO)CC1 [Perillyl alcohol]
Percentage of motility inhibition 0 h: 0%
Percentage of motility inhibition 24 h: 6%

COc1cc2c(cc1O)C[C@H]1c3cc(O)c(OC)cc3CC[N+]1(C)C2.[Cl-] (stereo partly drawn) [Phellodendrine (chloride)]
Percentage of motility inhibition 0 h: 25%
Percentage of motility inhibition 24 h: 7%

CC(C)C[C@H](NP(=O)([O-])O[C@H]1O[C@H](C)[C@@H](O)[C@H](O)[C@@H]1O)C(=O)N[C@@H](Cc1c[nH]c2ccccc12)C(=O)[O-].[Na+].[Na+] [Phosphoramidon (Disodium)]
Percentage of motility inhibition 0 h: 19%
Percentage of motility inhibition 24 h: 7%

— PMC11855827, “High-Throughput Screening of Five Compound Libraries for Anthelmintic Activity and Toxicity Leads to the Discovery of Two Flavonoid Compounds” (International Journal of Molecular Sciences, 2025)
